Laboratory results reported in paper PMC7667655, “Targeted Covalent Inhibition of Plasmodium FK506 Binding Protein 35” (ACS Medicinal Chemistry Letters, 2020).
pIC50: −log10 of the molar value.

Assays:
[1] = molecular target: T1, FBD35 (PfFKBP35 binding domain) (Plasmodium falciparum, UniProt Q8I4V8); assay: Fluorescence polarization competition, FBD35
T1 construct: FKBP35 Q5 -A128; 6His-SUMO (N, cleaved yes); made in house; host or cells: E. coli BL21 DE3

[2] = molecular target: T1, FBD35 (PfFKBP35 binding domain); assay: Differential scanning calorimetry, FBD35; conditions: read-out: FBD35 ΔTM
[3] = Plasma stability assay, human; type: in vitro ADME; conditions: percent remaining, 1 µM, 37 °C, 5 hours
Procedure: (§1) In 96-well round-bottom plates, sorbitol -synchronized cultures of ring-stage NF54 P. falciparum parasites were established in triplicate and treated with varying concentrations of the inhibitors (25-0.0038 μM) serially diluted in complete medium. Parasite proliferation rates were analyzed after 72 h using the Renilla-Glo Luciferase Assay, and luminescence was measured using the GloMax® Discover Microplate Reader. EC 50 values were obtained from corrected dose-response curves using GraphPad Prism (version 5; GraphPad Software). Data represent the mean % luminescence relative to 5% DMSO-treated (vehicle, 100% growth) and 100 nM chloroquine-treated (no growth) controls.
(§2) In black, clear-bottom 96-well plates (No. 3904 Corning Life Sciences), HEK293T cells were plated at 2x10^5 cells/mL in DMEM high glucose, pyruvate media (ThermoFisher Scientific, cat. 11995073) supplemented with 10% FBS and 1% pen -strep (100 μL final volume). Cells were incubated overnight at 37°C, 5% CO2. Using a Tecan D300e digital dispenser, cells were dosed in triplicate […]
(§3) concentration, 100 mM stock in DMSO) and Carfilzomib (10 µM to 4.6 nM final concentration, 10 mM stock in DMSO) normalizing DMSO to 0.25%. Cells were then incubated at 37 °C, 5% CO2 for 72 hours. Following incubation, cells were treated with 70 µL CellTiter-Glo® Luminescent Cell Viability Assay Reagent (Promega, cat. G7570) and incubated in the dark at room temperature for 30 minutes. Plates were read using an EnVision Multimode Plate Reader (PerkinElmer). Cell viability data was normalized to DMSO controls and analyzed in GraphPad Prism 8 by fitting the data to “[Inhibitor] vs. normalized response – variable slope” model to obtain the curves.
Each compound was prepared in duplicate at 1 µM final concentration (0.2% DMSO) in human or mouse plasma (Aldrich). Samples were incubated at 37 °C for 5 hours with mixing at 350 rpm on an orbital shaker. Aliquots of each sample were taken at time zero and following 5 hours. Each sample was quenched by adding acetonitrile in a 3:1 ratio and further diluting with 50 µl of PBS.
After quenching, samples were centrifuged to pellet precipitated partic ulates and an aliquot of supernatant was diluted 1:1 with water. The resulting solution was analyzed by UPLC -MS/MS with compounds detected by MRM detection on a triple quadrupole mass spectrometer. The ratio of compound peak areas at 0 and 5 hours were use d to calculate the percent remaining.

[4] = Cell viability assay (CellTiter-Glo); type: cell-based; conditions: human; HEK293T, 72 hour treatment; read-out: IC50 cell viability
Procedure: as §1, §2, §3
Each compound was prepared in duplicate at 1 µM final concentration (0.2% DMSO) in human or mouse plasma (Aldrich). […]
After quenching, samples were centrifuged to pellet precipitated partic ulates and an aliquot of supernatant was diluted 1:1 with water. The resulting solution was analyzed by UPLC -MS/MS with compounds detected by MRM detection on a triple quadrupole mass spectrometer. […]

T1 sequence (Q8I4V8 5-128): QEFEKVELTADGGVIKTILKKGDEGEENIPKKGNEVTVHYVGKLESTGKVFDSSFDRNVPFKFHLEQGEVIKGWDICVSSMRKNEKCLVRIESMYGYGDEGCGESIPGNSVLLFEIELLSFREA

Row | SMILES | pIC50 [1] | ΔTm at 40 µM [2] | Plasma Stability (human) [3] | fold weaker binding by FP ([1]; acrylamide moved to ortho position, compared with 1a) | IC50 at 72 h [4]
1 | CCC(=O)Nc1cccc([C@@H](CCc2ccc(OC)c(OC)c2)OC(=O)[C@@H]2CCCCN2C(=O)C(=O)C(C)(C)CC)c1 [1b] | 7.12 | 2.8 °C | 90% | – | –
2 | C=CC(=O)OCC(C)(C)C(=O)C(=O)N1CCCC[C@H]1C(=O)O[C@H](CCc1ccc(OC)c(OC)c1)c1ccccc1 [2c] | 6.25 | 14.5 °C | 0% | – | –
3 | C=CC(=O)Nc1ccccc1[C@@H](CCc1ccc(OC)c(OC)c1)OC(=O)[C@@H]1CCCCN1C(=O)C(=O)C(C)(C)CC [1c] | 5.55 | 9.6 °C | 62% | > 10 fold | 75000 nM
4 | C=CC(=O)Nc1cccc([C@@H](CCc2ccc(OC)c(OC)c2)OC(=O)[C@@H]2CCCCN2C(=O)C(=O)C(C)(C)CC)c1 [1a] | 6.69 | 13.4 °C | 92% | – | –
